Experimental data: ChEMBL document CHEMBL1126348, “1,3,4-trisubstituted pyrrolidinones as scaffolds for construction of peptidomimetic cholecystokinin antagonists” (Bioorg Med Chem Lett, 1992)

How the values were obtained:
[1] = target: T1, Cholecystokinin receptor type A (Rattus norvegicus, UniProt P30551); experiment: Displacement of [125I]CCK-OP radioligand from Cholecystokinin type A receptor in rat pancreatic acinar membrane binding assay; type: cell membranes
T1 sequence (P30551 whole entry): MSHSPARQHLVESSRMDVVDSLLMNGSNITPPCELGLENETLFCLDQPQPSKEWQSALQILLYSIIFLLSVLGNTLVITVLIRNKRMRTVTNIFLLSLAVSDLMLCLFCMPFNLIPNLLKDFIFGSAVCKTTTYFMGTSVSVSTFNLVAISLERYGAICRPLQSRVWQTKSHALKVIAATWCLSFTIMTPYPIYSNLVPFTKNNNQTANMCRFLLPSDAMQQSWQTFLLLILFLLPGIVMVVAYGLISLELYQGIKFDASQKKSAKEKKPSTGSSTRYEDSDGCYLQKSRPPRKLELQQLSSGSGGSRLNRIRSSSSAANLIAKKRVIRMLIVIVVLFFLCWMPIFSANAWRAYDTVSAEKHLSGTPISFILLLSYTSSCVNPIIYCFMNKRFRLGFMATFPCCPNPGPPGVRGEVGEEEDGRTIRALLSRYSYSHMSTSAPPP

[2] = target: T2, Cholecystokinin receptor type A (Rattus norvegicus) (UniProt P30551); experiment: Effective dose of compound causing reversal of cholecystokinin-8 (CCK-8) receptor induced delayed gastric emptying in the rat when administered intraperitoneally; type: functional; details: Stomach
T2 sequence (whole entry): T1 sequence (P30551 whole entry)

[3] = target: T2, Cholecystokinin receptor type A (Rattus norvegicus); experiment: Effective dose of compound causing reversal of cholecystokinin-8 (CCK-8) receptor induced delayed gastric emptying in the rat when administered orally; type: functional; details: Stomach
[4] = target: T3, Cholecystokinin receptor type A (Cavia porcellus, UniProt Q63931); experiment: Compound was tested for competitive blocking of guinea pig ileal smooth muscle strip contraction to cholecystokinin-8 (CCK-8) receptor; type: functional; details: read-out: pA2 (converted)
T3 sequence (Q63931 whole entry): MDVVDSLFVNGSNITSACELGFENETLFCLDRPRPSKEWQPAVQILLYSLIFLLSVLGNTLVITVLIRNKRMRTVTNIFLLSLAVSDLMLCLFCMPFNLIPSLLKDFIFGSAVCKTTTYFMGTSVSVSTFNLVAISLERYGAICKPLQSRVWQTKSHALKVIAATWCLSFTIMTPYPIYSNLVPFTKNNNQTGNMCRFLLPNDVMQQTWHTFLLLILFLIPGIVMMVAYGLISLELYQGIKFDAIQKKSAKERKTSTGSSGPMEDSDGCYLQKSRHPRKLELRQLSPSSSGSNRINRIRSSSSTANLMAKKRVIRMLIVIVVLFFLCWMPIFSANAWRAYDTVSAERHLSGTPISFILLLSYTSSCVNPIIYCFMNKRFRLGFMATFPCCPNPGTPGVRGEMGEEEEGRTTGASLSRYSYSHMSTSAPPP

| Structure (SMILES) | IC50 [1] [nM] | other results |
| --- | --- | --- |
| O=C(N[C@@H]1C(=O)N(Cc2ccccc2)C[C@@H]1C(=O)O)c1ccc2ccccc2c1 | 1290 |  |
| O=C(N[C@H]1C(=O)N(c2ccccc2)C[C@@H]1C(=O)O)c1cc2ccccc2[nH]1 | 360 |  |
| O=C(N[C@@H]1C(=O)N(Cc2ccccc2)C[C@@H]1C(=O)O)c1cc2ccccc2[nH]1 | 550 |  |
| O=C(N[C@@H]1C(=O)N(c2ccccc2F)C[C@@H]1C(=O)O)c1cnc2ccccc2c1 | 170 |  |
| O=C(N[C@H]1C(=O)N(c2ccccc2)C[C@@H]1C(=O)O)c1ccc2ccccc2c1 | 290 |  |
| CC(C)(C)OC(=O)[C@H]1CN(c2ccccc2)C(=O)[C@H]1NC(=O)c1ccc2ccccc2c1 | > 1000 |  |
| O=C(O)[C@H]1CN(c2ccccc2)C(=O)[C@H]1NS(=O)(=O)c1ccc2ccccc2c1 | > 1000 |  |

These reach a lower IC50 [1]. Values come first.

| IC50 [1] [nM] | Structure (SMILES) | other results |
| --- | --- | --- |
| 62 | O=C(N[C@@H]1C(=O)N(c2ccccc2F)C[C@@H]1C(=O)O)c1ccc2ccccc2c1 |  |
| 22 | CCCCCN(CCCCC)C(=O)C(CCC(=O)O)NC(=O)c1ccc(Cl)c(Cl)c1 (centres undefined) [LORGLUMIDE] |  |
| 18.5 | O=C(N[C@@H]1C(=O)N(c2ccccc2)C[C@@H]1C(=O)O)c1cc2ccccc2[nH]1 |  |
| 16 | O=C(N[C@@H]1C(=O)N(c2ccccc2)C[C@@H]1C(=O)O)c1ccc2ccccc2c1 | ED50 [2]: 0.41 mg/kg; ED50 [3]: 1.8 mg/kg; Kb [4]: 6.31 nM |
